Assay results taken from ChEMBL document CHEMBL3885861, “Open TG-GATES”.

Species: Rattus norvegicus
Assay: Open TG-GATES - Regimen: Single
Type: toxicity, organism-based, Sprague-Dawley
Set-up: regimen Single, gender Male, age 6 weeks
Conditions: in vivo, po, 20 mg/kg, route gavage, dose level Low; for APTT / Bas / Eos / Fbg / Hb / Ht / Lym / MCH / MCHC / MCV / Mono / Neu / PT / Plat / RBC / Ret / WBC: tissue Blood; for KIDNEY_L / KIDNEY_R / KIDNEY_TOTAL: tissue Kidney; for LIVER: tissue Liver; for A/G / ALP / ALT / AST / BUN / CRE / Ca / Cl / DBIL / GLC / IP / K / LDH / Na / PL / RALB / TBIL / TC / TG / TP / gamma-GTP: tissue Plasma

## Cn1c(=O)c2[nH]cnc2n(C)c1=O.O [THEOPHYLLINE]
3 h
  TERMINAL_BW: 211.4 g
  APTT: 22.4 s
  Bas: 0%
  Eos: 1%
  Fbg: 298.2 mg/dL
  Hb: 13.1 g/dL
  Ht: 39.2%
  Lym: 80.4%
  MCH: 21.1 pg
  MCHC: 33.5%
  MCV: 62.9 fL
  Mono: 2.4%
  Neu: 15.2%
  PT: 15.8 s
  Plat: 125.8 x10_4/uL
  RBC: 623 x10_4/ul
  Ret: 7.2%
  WBC: 83.9 x10_2/uL
  KIDNEY_L: 0.9 g
  KIDNEY_R: 0.9 g
  KIDNEY_TOTAL: 1.8 g
  LIVER: 9.4 g
  A/G: 1.3
  ALP: 1988.6 IU/L
  ALT: 46.8 IU/L
  AST: 75 IU/L
  BUN: 14.4 mg/dL
  CRE: 0.2 mg/dL
  Ca: 10.6 mg/dL
  Cl: 108.8 meq/L
  DBIL: 0 mg/dL
  GLC: 181.8 mg/dL
  IP: 7.2 mg/dL
  K: 3.5 meq/L
  LDH: 159.2 IU/L
  Na: 141.8 meq/L
  PL: 137.4 mg/dL
  RALB: 3.2 g/dL
  TBIL: 0.02 mg/dL
  TC: 80.6 mg/dL
  TG: 45.4 mg/dL
  TP: 5.8 g/dL
  gamma-GTP: 1.2 IU/L
6 h
  TERMINAL_BW: 213.7 g
  APTT: 23.5 s
  Bas: 0%
  Eos: 0.6%
  Fbg: 315.4 mg/dL
  Hb: 13.8 g/dL
  Ht: 41.9%
  Lym: 82.8%
  MCH: 20.8 pg
  MCHC: 33.1%
  MCV: 63 fL
  Mono: 2.4%
  Neu: 12.8%
  PT: 15.5 s
  Plat: 129.9 x10_4/uL
  RBC: 664.6 x10_4/ul
  Ret: 7.4%
  WBC: 99.4 x10_2/uL
  KIDNEY_L: 0.9 g
  KIDNEY_R: 0.9 g
  KIDNEY_TOTAL: 1.9 g
  LIVER: 9 g
  A/G: 1.2
  ALP: 1532.8 IU/L
  ALT: 46 IU/L
  AST: 85.2 IU/L
  BUN: 9.8 mg/dL
  CRE: 0.2 mg/dL
  Ca: 10.5 mg/dL
  Cl: 108.2 meq/L
  DBIL: 0 mg/dL
  GLC: 178.2 mg/dL
  IP: 8.4 mg/dL
  K: 3.8 meq/L
  LDH: 174.8 IU/L
  Na: 141 meq/L
  PL: 126.6 mg/dL
  RALB: 3.1 g/dL
  TBIL: 0.02 mg/dL
  TC: 73.2 mg/dL
  TG: 51.8 mg/dL
  TP: 5.6 g/dL
  gamma-GTP: 1.2 IU/L
9 h
  TERMINAL_BW: 210.6 g
  APTT: 23.2 s
  Bas: 0%
  Eos: 1%
  Fbg: 297 mg/dL
  Hb: 13.5 g/dL
  Ht: 40.9%
  Lym: 78%
  MCH: 20.4 pg
  MCHC: 33%
  MCV: 61.6 fL
  Mono: 2.4%
  Neu: 18%
  PT: 15.6 s
  Plat: 121.1 x10_4/uL
  RBC: 666.6 x10_4/ul
  Ret: 6.9%
  WBC: 89.6 x10_2/uL
  KIDNEY_L: 0.9 g
  KIDNEY_R: 1 g
  KIDNEY_TOTAL: 1.9 g
  LIVER: 8.8 g
  A/G: 1.3
  ALP: 1401 IU/L
  ALT: 43.4 IU/L
  AST: 73.8 IU/L
  BUN: 11.6 mg/dL
  CRE: 0.2 mg/dL
  Ca: 10.9 mg/dL
  Cl: 106 meq/L
  DBIL: 0 mg/dL
  GLC: 170.4 mg/dL
  IP: 8.8 mg/dL
  K: 4.3 meq/L
  LDH: 168 IU/L
  Na: 140.8 meq/L
  PL: 120.8 mg/dL
  RALB: 3.1 g/dL
  TBIL: 0.014 mg/dL
  TC: 66.8 mg/dL
  TG: 51.4 mg/dL
  TP: 5.6 g/dL
  gamma-GTP: 1.2 IU/L
24 h
  TERMINAL_BW: 224.5 g
  APTT: 22.3 s
  Bas: 0%
  Eos: 1%
  Fbg: 316.8 mg/dL
  Hb: 13.7 g/dL
  Ht: 40.8%
  Lym: 80%
  MCH: 20.6 pg
  MCHC: 33.5%
  MCV: 61.5 fL
  Mono: 2.6%
  Neu: 15.2%
  PT: 15.9 s
  Plat: 146.8 x10_4/uL
  RBC: 664.2 x10_4/ul
  Ret: 7.2%
  WBC: 79.6 x10_2/uL
  KIDNEY_L: 0.9 g
  KIDNEY_R: 1 g
  KIDNEY_TOTAL: 1.9 g
  LIVER: 10.2 g
  A/G: 1.2
  ALP: 1615.2 IU/L
  ALT: 38.6 IU/L
  AST: 67.6 IU/L
  BUN: 16.4 mg/dL
  CRE: 0.2 mg/dL
  Ca: 11.1 mg/dL
  Cl: 106.2 meq/L
  DBIL: 0 mg/dL
  GLC: 186 mg/dL
  IP: 7.8 mg/dL
  K: 4.3 meq/L
  LDH: 175.8 IU/L
  Na: 142.6 meq/L
  PL: 145.8 mg/dL
  RALB: 3.1 g/dL
  TBIL: 0.006 mg/dL
  TC: 79.2 mg/dL
  TG: 94.4 mg/dL
  TP: 5.6 g/dL
  gamma-GTP: 1.8 IU/L
